Results from PMC9505425, “Targeting of the Mitochondrial TET1 Protein by Pyrrolo[3,2-b]pyrrole Chelators” (International Journal of Molecular Sciences, 2022).
Where “and” joins values, the source holds several entries; their conditions need not be identical. Identical values can stand only once. Values belong to the compound of their own block, whether it stands above or below them.

Assays:
BT-20 cells = test: MTT cytotoxicity assay, BT-20; assay type: cell-based, human; conditions: for Cell viability % / IC50: 48 h; for IC50: BT-20, MTT
Protocol: (§1) The effects of the tested compounds 1–6 on HF-P4, U-118 MG, H1299, BT-20, and Caov-3 cell lines were evaluated by the MTT assay during 48 h treatment (Table 2 and Tables S2–S31). In all tested compounds, we recognized a difference in cytotoxicity between healthy cells (HF-P4) and cancer cell lines (BT-20, Caov-3, and H-1299). […] In the case of ovarian cancer, the authors discovered oncogenic and poor prognosis roles of TET1 in epithelial ovarian carcinoma (EOC). TET1 is believed to demethylate the epigenome and activate numerous oncogenic pathways in EOC. The aforementioned study presents a new mechanism where TET1 contributes to tumor development through collaboration with CK2α [21]. The overexpression of the TET1 protein was also found in triple negative breast cancer and was associated with an activation of PI3K/mTOR pathway and decreased overall survival.
The human mammary gland/breast cell line (BT-20), purchased from ATCC (BT-20 (ATCC® HTB-19™), Manassas, VA, USA), was used for the cytotoxicity assay (MTT), and BT-20 cells were cultivated under standard conditions in Eagle’s minimum essential medium (ATCC, Manassas, VA, USA) supplemented with 10% FBS and streptomycin (100 μg/mL) at 37 °C at a 5% CO2 atmosphere.
(§2) For the cytotoxicity assay, we used the following cell lines: human glioblastoma cell line U118-MG, human mammary gland/breast cell line BT-20, human ovary adenocarcinoma cell line Caov-3, and non-small-cell lung carcinoma H-1299. As previously mentioned, these cell lines contain a high level of the TET1 protein, which corresponds to a lower overall survival. In addition to these cell cultures, we used the human dermal fibroblast cell line HF-P4 as a healthy control. Determination of cytotoxicity was performed using the MTT [3-(4,5-dimethylthiazol-2-yl)-2,5-diphenyltetrazolium bromide] colorimetric assay. Viable cells from each cell line were cultured in 96-well plates (VWR, Stříbrná Skalice, Czech Republic) at a density of 1.0 × 10^5 cells per well and allowed to grow for 24 h in 200 μL of recommended medium. After a 1-day incubation, the medium was replaced with solutions of compounds 1–6 at concentration ranges of 0.1–20 μM. Each concentration was measured four times within one test, and the entire test was repeated three times. Tested compounds 1–6 were dissolved in DMSO and then diluted with corresponding medium to a final volume of 200 μL (maximum 1% DMSO). After 48 h exposure, cells were treated with 175 μL of MTT solution (P-LAB, Prague, Czech Republic) for 2 h. In the next step, MTT solution was removed, and 125 μL of DMSO (Penta, Prague, Czech Republic) was added to solubilize dark crystals of formazan formed in intact cells, and absorbance was measured at 570 nm by the enzyme-linked immunoabsorbent assay reader Infinite® 200 PRO (Tecan, Männedorf, Switzerland). The final DMSO concentration was smaller than 1% (v/v). The absorbance of untreated cells was considered 100%, and IC50 values were calculated by the GraphPad Prism 8 software. As a parameter for cytotoxicity, we used a concentration that inhibits 50% of cell growth (IC50).

Caov-3 cells = test: MTT cytotoxicity assay, Caov-3; assay type: cell-based, human; conditions: for Cell viability % / IC50: 48 h; for IC50: Caov-3, MTT
Protocol: as §1
The human ovary adenocarcinoma cell line (Caov-3), purchased from ATCC (Caov-3 (ATCC® HTB-75™), Manassas, VA, USA), was used for the cytotoxicity assay (MTT). Caov-3 cells were cultivated under standard conditions in Dulbecco’s modified Eagle’s medium (ATCC, Manassas, VA, USA) supplemented with 10% FBS and streptomycin (100 μg/mL) at 37 °C at a 5% CO2 atmosphere.
as §2

[1] = BT-20, 750 nM, repeats, 0.75 µM
[2] = Homo sapiens, BT-20, 48 h, BT-20, 500 nM, repeats, read-out: Cell viability %
[3] = Homo sapiens, BT-20, 48 h, BT-20, 5 uM, repeats, read-out: Cell viability %
[4] = Homo sapiens, BT-20, 48 h, BT-20, 7.5 uM, repeats, read-out: Cell viability %
[5] = Homo sapiens, BT-20, 48 h, BT-20, 10 uM, repeats, read-out: Cell viability %
[6] = Homo sapiens, BT-20, 48 h, BT-20, 15 uM, repeats, read-out: Cell viability %
[7] = Homo sapiens, BT-20, 48 h, BT-20, 20 uM, repeats, read-out: Cell viability %
[8] = Caov-3, 100 nM, repeats, 0.1 µM
[9] = Caov-3, 500 nM, repeats, 0.5 µM
[10] = Caov-3, 750 nM, repeats, 0.75 µM
[11] = Caov-3, 2.5 uM, repeats, 2.5 µM
[12] = Caov-3, 7.5 uM, repeats, 7.5 µM
[13] = Homo sapiens, Caov-3, 48 h, Caov-3, 100 nM, repeats, read-out: Cell viability %
[14] = Homo sapiens, Caov-3, 48 h, Caov-3, 500 nM, repeats, read-out: Cell viability %
[15] = Homo sapiens, Caov-3, 48 h, Caov-3, 7.5 uM, repeats, read-out: Cell viability %
[16] = Homo sapiens, Caov-3, 48 h, Caov-3, 10 uM, repeats, read-out: Cell viability %
[17] = Homo sapiens, Caov-3, 48 h, Caov-3, 15 uM, repeats, read-out: Cell viability %
[18] = Homo sapiens, Caov-3, 48 h, Caov-3, 20 uM, repeats, read-out: Cell viability %

melting point: 306 to 307 °C
Compound: CCN(CC)c1ccc(/C=N/NC(=O)c2ccc(-c3cc4c(cc(-c5ccc(C(=O)N/N=C/c6ccc(N(CC)CC)cc6O)cc5)n4-c4ccc(C)cc4)n3-c3ccc(C)cc3)cc2)c(O)c1 [Compound 2]
Cell viability % (BT-20 cells; BT-20, 100 nM, repeats, 0.1 µM): 89.53% and 96.38% and 111.3369%
Cell viability % (BT-20 cells; BT-20, 500 nM, repeats, 0.5 µM): 89.9% and 93.14%
Cell viability % (BT-20 cells; [1]): 105.3004% and 102.8159%
Cell viability % (BT-20 cells; BT-20, 1 uM, repeats, 1 µM): 123.7041% and 111.0298% and 97.09%
Cell viability % (BT-20 cells; BT-20, 2.5 uM, repeats, 2.5 µM): 100.513% and 96.3761%
Cell viability % (BT-20 cells; BT-20, 5 uM, repeats, 5 µM): 79.33% and 68.98%
Cell viability % (BT-20 cells; BT-20, 7.5 uM, repeats, 7.5 µM): 62.62% and 57%
Cell viability % (BT-20 cells; BT-20, 10 uM, repeats, 10 µM): 57.5% and 51.13%
Cell viability % (BT-20 cells; BT-20, 15 uM, repeats, 15 µM): 49.9% and 44.54%
Cell viability % (BT-20 cells; BT-20, 20 uM, repeats, 20 µM): 24.61% and 32.37%
viability at 0.5 µM (BT-20 cells; [2]): 89.8%
viability at 0.75 µM (BT-20 cells; Homo sapiens, BT-20, 48 h, BT-20, 750 nM, repeats, read-out: Cell viability %): 88.9%
viability at 2.5 µM (BT-20 cells; Homo sapiens, BT-20, 48 h, BT-20, 2.5 uM, repeats, read-out: Cell viability %): 98.6%
viability at 5 µM (BT-20 cells; [3]): 73.8%
viability at 7.5 µM (BT-20 cells; [4]): 60.2%
viability at 10 µM (BT-20 cells; [5]): 45%
viability at 15 µM (BT-20 cells; [6]): 46.7%
viability at 20 µM (BT-20 cells; [7]): 28.3%
IC50 (BT-20 cells; Homo sapiens): 11.9 µM
Cell viability % (Caov-3 cells; [8]): 105.779% and 93.87%
Cell viability % (Caov-3 cells; [9]): 78.8105% and 77.85%
Cell viability % (Caov-3 cells; [10]): 73.37% and 52.9% and 76.29%
Cell viability % (Caov-3 cells; Caov-3, 1 uM, repeats, 1 µM): 78.5% and 67.16% and 48.54%
Cell viability % (Caov-3 cells; [11]): 64.6096% and 82.47% and 61.81%
Cell viability % (Caov-3 cells; Caov-3, 5 uM, repeats, 5 µM): 59.21% and 86.03% and 70.4727%
Cell viability % (Caov-3 cells; [12]): 79.2% and 67.97%
Cell viability % (Caov-3 cells; Caov-3, 10 uM, repeats, 10 µM): 51.36% and 52.95%
Cell viability % (Caov-3 cells; Caov-3, 15 uM, repeats, 15 µM): 50.9752% and 42.33%
Cell viability % (Caov-3 cells; Caov-3, 20 uM, repeats, 20 µM): 25.3% and 23.25%
viability at 0.1 µM (Caov-3 cells; [13]): 95.3%
viability at 0.5 µM (Caov-3 cells; [14]): 76.2%
viability at 7.5 µM (Caov-3 cells; [15]): 73.3%
viability at 10 µM (Caov-3 cells; [16]): 52.1%
viability at 15 µM (Caov-3 cells; [17]): 42.8%
viability at 20 µM (Caov-3 cells; [18]): 28.4%
IC50 (Caov-3 cells; Homo sapiens): 13.3 µM

melting point: 328 to 329 °C
Compound: Cc1ccc(-n2c(-c3ccc(C(=O)N/N=C/c4ccc(O)cc4O)cc3)cc3c2cc(-c2ccc(C(=O)N/N=C/c4ccc(O)cc4O)cc2)n3-c2ccc(C)cc2)cc1 [Compound 4]
Cell viability % (BT-20 cells; BT-20, 100 nM, repeats, 0.1 µM): 89.05% and 76.97% and 98.11%
Cell viability % (BT-20 cells; BT-20, 500 nM, repeats, 0.5 µM): 90.8088% and 82.57%
Cell viability % (BT-20 cells; [1]): 103.1798% and 88.69% and 109.7163%
Cell viability % (BT-20 cells; BT-20, 1 uM, repeats, 1 µM): 100.5483% and 88.51%
Cell viability % (BT-20 cells; BT-20, 2.5 uM, repeats, 2.5 µM): 82.74% and 106.2024% and 110.5893%
Cell viability % (BT-20 cells; BT-20, 5 uM, repeats, 5 µM): 77.52% and 61.62%
Cell viability % (BT-20 cells; BT-20, 7.5 uM, repeats, 7.5 µM): 44.3% and 44.18%
Cell viability % (BT-20 cells; BT-20, 10 uM, repeats, 10 µM): 18.92% and 21.27%
Cell viability % (BT-20 cells; BT-20, 15 uM, repeats, 15 µM): 8.454% and 10.83%
Cell viability % (BT-20 cells; BT-20, 20 uM, repeats, 20 µM): 9.864% and 12.92%
viability at 0.5 µM (BT-20 cells; [2]): 77.8%
viability at 1 µM (BT-20 cells; Homo sapiens, BT-20, 48 h, BT-20, 1 uM, repeats, read-out: Cell viability %): 96.3%
viability at 5 µM (BT-20 cells; [3]): 73.5%
viability at 7.5 µM (BT-20 cells; [4]): 37.5%
viability at 10 µM (BT-20 cells; [5]): 20.1%
viability at 15 µM (BT-20 cells; [6]): 8.06%
viability at 20 µM (BT-20 cells; [7]): 8.37%
IC50 (BT-20 cells; Homo sapiens): 6.22 µM
Cell viability % (Caov-3 cells; [8]): 84.95% and 82.17%
Cell viability % (Caov-3 cells; [9]): 102.391% and 108.5681%
Cell viability % (Caov-3 cells; [10]): 102.8833% and 94.08%
Cell viability % (Caov-3 cells; Caov-3, 1 uM, repeats, 1 µM): 98.73% and 92.87%
Cell viability % (Caov-3 cells; [11]): 74.65% and 110.1266% and 69.7%
Cell viability % (Caov-3 cells; Caov-3, 5 uM, repeats, 5 µM): 50.71% and 80.94% and 55.26%
Cell viability % (Caov-3 cells; [12]): 53.66% and 54.17%
Cell viability % (Caov-3 cells; Caov-3, 10 uM, repeats, 10 µM): 41.07% and 42.6107%
Cell viability % (Caov-3 cells; Caov-3, 15 uM, repeats, 15 µM): 17.58% and 17.6%
Cell viability % (Caov-3 cells; Caov-3, 20 uM, repeats, 20 µM): 14.91% and 14.49%
viability at 0.1 µM (Caov-3 cells; [13]): 68.6%
viability at 0.5 µM (Caov-3 cells; [14]): 104%
viability at 0.75 µM (Caov-3 cells; Homo sapiens, Caov-3, 48 h, Caov-3, 750 nM, repeats, read-out: Cell viability %): 92.8%
viability at 1 µM (Caov-3 cells; Homo sapiens, Caov-3, 48 h, Caov-3, 1 uM, repeats, read-out: Cell viability %): 101%
viability at 7.5 µM (Caov-3 cells; [15]): 53.1%
viability at 10 µM (Caov-3 cells; [16]): 42.9%
viability at 15 µM (Caov-3 cells; [17]): 19.5%
viability at 20 µM (Caov-3 cells; [18]): 14.3%
IC50 (Caov-3 cells; Homo sapiens): 9.13 µM
